# Data taken from patent US6491894B1, “NGR receptor and methods of identifying tumor homing molecules that home to angiogenic vasculature using same” (The Burnham Institute, priority 1998, dated 2002).
# Where no end group is shown, it is not given here.
# Legend:
# CD13/APN [1] = target: T1, CD13/APN (Homo sapiens, UniProt P15144); assay: Affinity chromatography of cell extracts on immobilized peptide; type: binding
# T1 construct: Experiments were performed using HL-60 cell extracts because they are known to express CD13/APN; endogenous in cells; host or cells: HL-60 cells (extract)
# Method: To further characterize the interaction of CD13/APN with the NGR peptide, affinity chromatography on the CNGRC peptide was performed. The column was prepared by coupling the CNGRC peptide to SEPHAROSE (Pharmacia; Piscataway N.J.). Elution was effected with soluble CNGRC peptide. […] Extracts of Molt-4 and MDA-MB-435 cells transfected with CD13/APN were also characterized by using affinity chromatography, with extracts of the mock transfected counterparts used as negative controls.
# The fractions were also analyzed for CD13 enzymatic activity using AlapNA as the substrate.
# CD13 = target: T2, CD13 (Gallus gallus, UniProt O57579); assay: bFGF-induced angiogenesis in chicken chorioallantoic membrane (CAM); type: in vivo; conditions: topical, 3 days
# T2 construct: CD13 is expressed in CAM angiogenic vasculature; from tissue; host or cells: chorioallantoic membrane of 10-day chicken embryos
# T2 sequence (O57579 1-972): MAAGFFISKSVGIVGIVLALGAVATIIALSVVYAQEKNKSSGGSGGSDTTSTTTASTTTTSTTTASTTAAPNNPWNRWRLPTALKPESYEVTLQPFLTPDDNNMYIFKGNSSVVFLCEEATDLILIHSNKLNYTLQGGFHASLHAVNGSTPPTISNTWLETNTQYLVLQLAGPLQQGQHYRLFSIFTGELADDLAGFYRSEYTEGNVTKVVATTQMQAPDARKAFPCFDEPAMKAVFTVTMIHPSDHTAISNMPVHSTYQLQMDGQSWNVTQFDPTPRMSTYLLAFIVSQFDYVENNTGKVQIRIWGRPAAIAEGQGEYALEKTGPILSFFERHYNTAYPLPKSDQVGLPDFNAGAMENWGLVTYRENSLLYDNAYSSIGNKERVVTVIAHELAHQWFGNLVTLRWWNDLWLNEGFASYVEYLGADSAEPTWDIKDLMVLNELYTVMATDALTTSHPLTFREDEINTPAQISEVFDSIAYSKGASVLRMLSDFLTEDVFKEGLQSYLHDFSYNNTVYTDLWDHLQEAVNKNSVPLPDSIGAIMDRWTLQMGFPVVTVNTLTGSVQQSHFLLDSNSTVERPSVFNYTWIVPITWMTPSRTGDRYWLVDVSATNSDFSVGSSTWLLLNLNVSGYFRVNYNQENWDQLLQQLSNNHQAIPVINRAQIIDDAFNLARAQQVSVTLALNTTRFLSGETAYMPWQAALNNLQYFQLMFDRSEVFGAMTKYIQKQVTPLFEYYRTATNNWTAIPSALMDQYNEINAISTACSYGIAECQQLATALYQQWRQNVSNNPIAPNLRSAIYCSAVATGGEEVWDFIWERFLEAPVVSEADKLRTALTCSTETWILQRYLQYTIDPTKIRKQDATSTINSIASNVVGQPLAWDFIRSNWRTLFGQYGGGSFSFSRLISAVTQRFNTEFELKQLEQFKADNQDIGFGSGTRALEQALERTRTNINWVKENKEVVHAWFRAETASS
# From the text: Various treatments were applied topically, and, after 3 days, the filters and surrounding CAMs were resected and fixed in formalin.
# Each bar represents the mean number of vessels and standard errors from 8 CAMs on each group.
# CD13/aminopeptidase N = CD13/aminopeptidase N (Homo sapiens, UniProt P15144); conditions: cited from earlier work
# [2] = system: MDA-MB-435 breast carcinoma; assay: Tumor therapy of mice bearing MDA-MB-435 breast carcinoma; type: in vivo, mouse
# Method: Female 2-month old Balb c nu/nu mice (Harlan Sprague Dawley; San Diego Calif.) were used for these studies and were cared for according to the Burnham Institute animal facility guidelines. […] Tumors were allowed to grow to a size of about 1 cm^3 (about 5% of the mouse's body weight) before starting the treatment experiments, except for the toxicity experiments as discussed below.
# Weekly doxorubicin/peptide conjugate or control treatments (5 μg/mouse/week of doxorubicin-equivalent) were administered intravenously. In some experiments, as indicated, a dose of 30 μg/mouse was administered every 3 weeks. […] As an additional control, in some experiments the tumor homing peptide was mixed with doxorubicin, without linking, and the mixture was administered to tumor bearing mice.
# Mice were anesthetized with a tribromoethanol-based anesthetic mixture (AVERTIN; Papaioannou and Fox, Lab. Anim. 43:189-192 (1993)) before each treatment. Anesthetization facilitated the tail vein injections (final volume, 200 μl) and allowed precise serial three dimensional tumor size measurements. Tumor volume calculations were based on the equation for the volume of an ovaloid: V=4/3(nabc), where a, b, and c are ½ of the measured diameters in each of the three dimensions.
# Briefly, mice with size-matched tumors (˜1000 mm^3) were randomized into four treatment groups (six animals per group): vehicle only, free doxorubicin, doxorubicin-control peptide, and doxorubicin-CNGRC (SEQ ID NO:8). Mice were treated at 5 μg/mouse/week of doxorubicin-equivalent, and the difference in tumor volumes between day 1 and day 28 determined (FIG. 11A).
# [3] = system: MDA-MB-435 human breast carcinoma cells; conditions: for cell killing when agents not removed: after 24 hr
# Method: (SEQ ID NO:19; control) conjugate (0.1 to 10 μg/well of doxorubicin-equivalent) for either 30 min or overnight. Following incubation, the agents were removed by extensive washing with PBS, then fresh medium added and incubation was continued.
# [4] = system: MDA-MB-435 breast carcinoma; assay: Tumor therapy of mice bearing MDA-MB-435 breast carcinoma; type: in vivo; conditions: 5 μg/mouse/week doxorubicin-equivalent
# CD13/APN [5] = target: T1, CD13/APN; assay: Aminopeptidase enzymatic activity of immuno-isolated CD13 (Ala-pNA or Leu-pNA); type: biochemical; conditions: Kaposi's sarcoma tumor cell extracts
# Method: Given that the NGR sequence closely resembles a reverse RGD sequence, NGR-containing phage were tested to determine whether they would bind to CD13/aminopeptidase (CD13/APN). Kaposi's sarcoma tumor cell octylglucoside extracts were used as a source of CD13/APN. Aminopeptidase enzymatic activity was measured in these extracts utilizing Ala-pNA or Leu-pNA as substrates by monitoring the absorbance of the samples at 405 nm (Look et al., supra (1989); Taylor, supra (1993); Amoscato et al., supra (1989), each of which is incorporated herein by reference).
# The CD13 antibody alone had no aminopeptidase activity.
# [6] = system: MDA-MB-435 derived tumors; assay: In vivo targeting of phage to breast carcinoma xenografts (phage recovery); parameters: species or system mouse; inhibition of CGSLVRC phage tumor homing by soluble peptide: dose or concentration left out as unconfirmed; conditions: for reduction of the amount of phage in the tumor by coinjection of free peptide: 500 μg free peptide coinjected with RGD-4C phage; for inhibition of tumor homing of CNGRCVSGCAGRC (NGR) phage by co-injected soluble peptide: breast carcinoma xenografts; for inhibition of tumor homing of RGD-4C phage by co-injected soluble peptide: increasing amounts of peptide
# Method: When the tumors attained a diameter of about 1 cm, phage expressing a specific RGD-containing peptide were administered to the tumor bearing mouse. Similar results to those discussed below also were obtained with nude mice bearing tumors formed by implantation of human melanoma C8161 cells or by implantation of mouse B16 melanoma cells.
# 1×10^9 phage expressing the RGD-containing peptide, RGD-4C ([…]; SEQ ID NO:1; see, Koivunen et al., supra, 1995) or control (insertless) phage were injected intravenously (iv) into the mice and allowed to circulate for 4 min. The mice then were snap frozen or perfused through the heart while under anesthesia, and various organs, including tumor, brain and kidney, were removed and the phage present in the organs was quantitated (see U.S. Pat. No. 5,622,699; Pasqualini and Ruoslahti, supra, 1996).
# Phage displaying tumor homing peptides were recovered from breast carcinoma xenografts. […] The mean number of phage recovered from the tumor or control tissue (brain) and the standard error of the mean (SEM) from triplicate platings are shown in FIG. 1.
# An insertless phage with a different selective marker (ampicillin instead of tetracycline) was co-injected with the NGR phage at the same input to assess specificity within the same tumor-bearing animal. The ratios were calculated using the number of co-injected control ampicillin-resistant phage recovered from the same tissues. The phage were quantitated from triplicate platings on tetracycline (the homing phage) or ampicillin (control phage) selective plates. Various additional control phage were injected separately into tumor-bearing mice. These controls included: fd-tet phage without insert; unselected phage library mixtures; phage selected and shown to home to other normal vascular beds; and phage displaying peptides that were unrelated to NGR. The RGD-4C ([…]; SEQ ID NO:1) phage served as a positive control.
# human αv-integrins = conditions: cited from earlier work
# B16B15b mouse melanoma = assay: In vivo panning against a melanoma tumor; conditions: 89 cloned phage recovered from B16B15b tumors, three rounds
# Method: Mice bearing a melanoma were produced by implantation of B16B15b mouse melanoma cells, which produce highly vascularized tumors. B16B15b mouse melanoma cells were injected subcutaneously into the mammary fat pad of nude mice (2 months old) and tumors were allowed to grow until the diameter was about 1 cm. In vivo panning was performed as disclosed above. Approximately 1×10^12 transducing units of phage expressing the CX5C (SEQ ID NO:9), CX6C (SEQ ID NO:10) or CX7C (SEQ ID NO:11) library were injected, iv, and allowed to circulate for 4 min. Mice then were snap frozen in liquid nitrogen or perfused through the heart while under anesthesia, tumor tissue and brain (control organ) were removed, and phage were isolated as described above. Three rounds of in vivo panning were performed.
# The amino acid sequences were determined for the inserts in 89 cloned phage recovered from the B16B15b tumors. The peptides expressed by these phage were represented by two predominant sequences, […] (SEQ ID NO:4; 52% of the clones sequenced) and WGTGLC (SEQ ID NO:18; 25% of the clones; see Table 2).
# breast tumor = assay: Viability of tumor cells obtained from tumors of treated mice; type: in vivo, mouse; conditions: 30 μg equivalent iv, tumors removed five days after treatment
# Method: In addition, the viability of tumor cells obtained from tumors of mice treated with a tumor homing peptide/doxorubicin conjugate was compared to that of tumors from mice treated with free doxorubicin. In these experiments, breast tumor bearing mice were size matched with regard to the tumors, then treated intravenously with 30 μg equivalent of doxorubicin/RGD-4C ([…]; SEQ ID NO:1) or of free doxorubicin. Five days after treatment, the mice were euthanized and the tumors were removed. The tumor pairs were weighed and ground and the cell suspensions were plated (2 g tumor tissue per 150 mm plate).
# Cell numbers were determined at 24 hours and 7 days after plating. Viability of tumor cells from the tumors of mice receiving the doxorubicin/RGD-4C ([…]; SEQ ID NO:1) conjugate was about 3 fold less than cells from tumors of mice treated with the free doxorubicin.
# [7] = Acute toxicity in mice bearing extremely large tumors; conditions: 200 μg/mouse, tumors about 25% of body weight
# [8] = 5 μg/mouse/week doxorubicin-equivalent iv
# T1 sequence (P15144 whole entry): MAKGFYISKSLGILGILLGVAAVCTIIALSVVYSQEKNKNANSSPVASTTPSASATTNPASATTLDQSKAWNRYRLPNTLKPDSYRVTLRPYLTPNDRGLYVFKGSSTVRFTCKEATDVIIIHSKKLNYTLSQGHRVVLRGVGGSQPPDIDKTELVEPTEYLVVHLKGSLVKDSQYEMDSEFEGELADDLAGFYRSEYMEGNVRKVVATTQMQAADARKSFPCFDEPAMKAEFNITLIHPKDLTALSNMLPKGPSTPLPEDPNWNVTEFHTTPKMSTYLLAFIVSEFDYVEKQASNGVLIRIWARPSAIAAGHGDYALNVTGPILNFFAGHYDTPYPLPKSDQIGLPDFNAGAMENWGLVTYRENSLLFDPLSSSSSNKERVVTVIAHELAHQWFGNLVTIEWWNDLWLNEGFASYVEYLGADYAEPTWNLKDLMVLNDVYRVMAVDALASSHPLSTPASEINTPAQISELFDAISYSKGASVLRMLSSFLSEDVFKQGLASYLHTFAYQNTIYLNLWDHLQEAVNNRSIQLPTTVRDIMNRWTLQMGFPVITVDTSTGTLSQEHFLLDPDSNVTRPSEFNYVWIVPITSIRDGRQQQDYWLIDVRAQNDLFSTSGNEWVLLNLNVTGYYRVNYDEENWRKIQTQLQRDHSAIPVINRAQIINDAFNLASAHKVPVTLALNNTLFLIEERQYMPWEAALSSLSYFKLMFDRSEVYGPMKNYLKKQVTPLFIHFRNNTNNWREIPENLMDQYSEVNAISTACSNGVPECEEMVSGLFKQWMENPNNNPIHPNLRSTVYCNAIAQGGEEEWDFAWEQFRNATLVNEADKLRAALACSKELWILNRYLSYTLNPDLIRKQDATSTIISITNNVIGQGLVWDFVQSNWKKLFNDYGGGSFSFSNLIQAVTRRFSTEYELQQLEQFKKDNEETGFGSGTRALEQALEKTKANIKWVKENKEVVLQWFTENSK
# Chain of CD13/aminopeptidase N (P15144 whole entry): as above
molecule,measurement,setting,value
O=c1[nH]cc(F)c(=O)[nH]1 [CARAC],CD13/APN obtained by affinity chromatography on immobilized peptide,CD13/APN [1],yielded no CD13/APN
same,elution of CD13/APN from the CNGRC column by soluble peptide,"CD13/APN [1]; Molt-4/CD13, MDA-MB-435/CD13 or HL-60 cell extracts",did not elute any activity
CCCCC[C@H](CC(=O)NO)C(=O)N[C@H](C(=O)N1CCC[C@H]1CO)C(C)C [actinonin],effect on bFGF-induced angiogenesis in CAM,CD13,suppress bFGF-induced angiogenesis
same,block of cell-surface CD13/aminopeptidase N enzymatic activity,CD13/aminopeptidase N,potently blocked
"COc1cccc2c1C(=O)c1c(O)c3c(c(O)c1C2=O)C[C@@](O)(C(=O)CO)C[C@@H]3O[C@H]1C[C@H](N)[C@H](O)[C@H](C)O1 [doxorubicin, reference compound]",effect on tumor growth,[2]; relative to vehicle alone,essentially no effect on tumor growth
same,cell killing when agents not removed,[3],cells were killed
same,gross examination of tumors (skin ulceration and tumor necrosis),[4],no such signs were observed
c1cnc2c(c1)ccc1cccnc12 [o-phenanthroline],inhibition of aminopeptidase activity captured by CD13 antibody,CD13/APN [5],inhibited the activity
same,block of cell-surface CD13/aminopeptidase N enzymatic activity,CD13/aminopeptidase N,potently blocked
ACDCRGDCFCG,reduction of the amount of phage in the tumor by coinjection of free peptide,[6],about tenfold
CDCRGDCFC [RGD-4C],inhibition of tumor homing of CNGRCVSGCAGRC (NGR) phage by co-injected soluble peptide,[6],partially inhibited
same,inhibition of tumor homing of RGD-4C phage by co-injected soluble peptide,[6],readily inhibited
same,"potency in inhibiting NGR phage tumor homing, less potent than the CNGRC peptide","[6]; mouse, in vivo",5-10 times
same,binding to αv-integrins,human αv-integrins,binds to human αv-integrins
CGSLVRC,inhibition of CGSLVRC phage tumor homing by soluble peptide,[6],inhibition of tumor homing
CLSGSLSC,share of the clones sequenced,B16B15b mouse melanoma,52%
"GACVFSIAHECGA (not fully specified (bridges); also: cyclic, ring type not given here) [unrelated cyclic control peptide, reference compound]",inhibition of tumor homing of CNGRCVSGCAGRC (NGR) phage by co-injected soluble peptide,[6],had no effect
same,inhibition of tumor homing of RGD-4C phage by co-injected soluble peptide,[6],had no effect
GRGESP [reference compound],reduction of the amount of phage in the tumor by coinjection of free peptide,[6],essentially had no effect
WGTGLC,share of the clones sequenced,B16B15b mouse melanoma,25%
doxorubicin/RGD-4C: doxorubicin conjugated to peptide CDCRGDCFC (SEQ ID NO:1) (cysteine pairing not given here; also: doxorubicin conjugate),"viability of tumor cells, less than cells from tumors of mice treated with free doxorubicin",breast tumor,about 3 fold
same,pulmonary metastasis,[2]; [8],a lower incidence of pulmonary metastasis and fewer metastatic lesions
same,spread to regional lymph nodes,[2]; [8],less spread to regional lymph nodes
same,survival,[2]; [8],survived beyond the time when the doxorubicin control and conjugate control mice had died
same,tumor size versus doxorubicin control,[2]; [8],significantly smaller tumors
same,time alive after control mice had died,"[2]; dose escalation, 30 μg/mouse every three weeks for three cycles",more than 6 months
same,histopathological analysis of tumor vasculature,"[2]; mouse, in vivo",pronounced destruction of the vasculature
same,cell death after 30 min exposure,"[3]; 0.1 to 10 μg/well doxorubicin-equivalent, agents removed after 30 min, survival at 24 hours",cell death was present
same,cell killing when agents not removed,[3],cells were killed
same,gross examination of tumors (skin ulceration and tumor necrosis),[4],marked skin ulceration and tumor necrosis
same,survival after acute dose,[7],survived for longer than one week
